Entries after “also recorded” stand apart in the source; their conditions may differ. Like-named read-outs stand apart in the source and are kept apart here.
How the values were obtained:
human-KOR [1] = target: T1, human-KOR (Homo sapiens, UniProt P41145); assay: Calcium mobilization assay, CHO-KOR cells expressing Gαqi5; assay type: cell-based; parameters: expressed in transfected cells; gift of Dr. Larry Toll (SRI International); infected with a retrovirus for Gαqi5; details: for KOR pEC50 (CL95%): agonist mode, crc incomplete = incomplete concentration response curve at 10 μM; for KOR pEC50 (CL95%) / KOR pKB (CL95%): Inactive = inactive at 10 μM; for KOR pKB (CL95%): antagonist mode, dynorphin A as agonist; for functional profile at KOR: calcium mobilization
Experimental: (§1) The pharmacological characterization of LP1 derivatives 2 and 10–16 was performed by calcium mobilization assay (Table 2). This procedure was preliminarily validated through a series of experiments where the effects of DPDPE, dermorphin, and dynorphin A were assessed in CHO cells expressing the human recombinant opioid receptors and Gαqi5 or GαqG66Di5 chimeric proteins.
(§2) Chinese hamster ovary (CHO) cells expressing the recombinant human MOR and KOR (CHO^MOR and CHO^KOR) were kindly provided by Dr. Larry Toll (SRI International, Menlo Park, CA, USA), and CHO cells expressing the recombinant human DOR (CHO^DOR) were supplied by Dr. Eva Varga (Department of Medical Pharmacology, The University of Arizona, Tucson, AZ, USA). CHO cells lines permanently coexpressing the opioid receptors and the C-terminally modified Gαqi5 were prepared by infecting the CHO lines described above with a recombinant retrovirus expressing the chimeric α subunit and the hygromycin resistance gene. Similarly, CHO cells lines permanently coexpressing DOR and the C-terminally modified GαqG66Di5 were prepared by infecting the CHO lines described above with a recombinant retrovirus expressing the chimeric α subunit and the hygromycin resistance gene. Polyclonal cell lines were generated using the pantropic retroviral expression system form BD-Clontech, as described previously. Stable lines were selected under hygromycin B (100 μg/mL) and geneticin (600 μg/mL) for 2–3 weeks after the infection.
(§3) CHO cells, expressing human opioid receptors and the Gαqi5 protein, and CHODOR, expressing the GαqG66Di5 protein, were maintained in culture medium consisting of Dulbecco minimum essential medium (DMEM) and Ham F-12 (1:1) (50/50) supplemented with 10% fetal calf serum (FCS), L-glutamine (2 mM), geneticin (200 μg/mL; G418), hygromycin B (100 μg/mL) at 37 °C in 5% CO2 humidified air. When confluence was reached (3–4 days), cells were subcultured as required using trypsin/EDTA, and used for experimentation. The different cell lines were seeded at a density of […] into black 96-well, clear-bottomed plates. After 24 h incubation, the cells were loaded with medium supplemented with 2.5 mM probenecid, 3 μM of the calcium sensitive fluorescent dye Fluo-4 AM, and 0.01% pluronic acid, for 30 min at 37 °C. Afterwards, the loading solution was aspirated and 100 μL/well of assay buffer—HBSS supplemented with 20 mM HEPES, 2.5 mM probenecid and 500 μM Brilliant Black (Aldrich, St. Louis, MO, USA)—was added. Serial dilutions of ligands for experimental use were made in HBSS/HEPES (20 mM) buffer (containing 0.005% BSA fraction V). After placing both plates (cell culture and compound plate) into the FlexStation II (Molecular Device, Union City, San Jose, CA 94587, USA), fluorescence changes were measured at room temperature. Online additions were carried out in a volume of 50 μL/well. Antagonists were incubated 15 min before the addition of the agonist. Maximum change in fluorescence, expressed in percent of baseline fluorescence, was used to determine agonist response.
(§4) Analysis of the binding data was performed using the Origin 7.5 software (OriginLab Corporation, Northampton, MA, USA). In calcium mobilization experiments, data were analyzed by non-linear curve fitting equation, using GraphPad 5.0 software. […] Ligand efficacy was expressed as intrinsic activity (α), calculated as the ratio between the Emax of the ligand and that of the respective standards. Calcium mobilization data were expressed as FIU (fluorescence intensity units) in percent, over the baseline. Agonist potencies are given as pEC50 (the negative logarithm to base 10 of the molar concentration of an agonist that produces 50% of the maximal possible effect, Emax). Concentration response curves to agonists were fitted with the following equation: Effect = baseline + (Emax − baseline)/(1+10^(LogEC50 − X) ∗ HillSlope) where X is the agonist concentration. […]

recombinant human DOR = target: T2, recombinant human DOR (Homo sapiens, UniProt P41143); assay: Calcium mobilization assay, CHO-DOR cells expressing GαqG66Di5; assay type: cell-based; details: for DOR pEC50 (CL95%): agonist mode, crc incomplete = incomplete concentration response curve at 10 μM; for DOR pEC50 (CL95%) / DOR pKB (CL95%): Inactive = inactive at 10 μM; for DOR pKB (CL95%): antagonist mode, DPDPE as agonist; for functional profile at DOR: calcium mobilization
T2 construct: expressed in transfected cells; supplied by Dr. Eva Varga (University of Arizona); infected with a retrovirus for GαqG66Di5
Experimental: as §1, §2, §3, §4

human-KOR [2] = target: T1, human-KOR; assay: Radioligand competition binding, [3H]-DPN, HEK293 membranes, KOR; parameters: expressed in transfected cells
Experimental: (§5) All synthesized compounds were tested in vitro by radioligand competition binding using [^3H]-diprenorphine ([^3H]-DPN) to measure the affinity for opioid receptor subtypes in membranes from HEK293 cells stably expressing either MOR, DOR, or KOR, as previously described.
(§6) Confluent monolayers of HEK293 (human embryonic kidney 293) cells stably expressing rat-MOR, rat-DOR, or human-KOR were harvested, collected by centrifugation at 1500 rpm for 5 min, and washed once with phosphate-buffered saline (PBS) at pH 7.5. Membranes from cell pellets were carried out as described by Georgoussi and Zioudrou (1993) and Papakonstantinou et al. (2015). Briefly, cell pellets were resuspended in ice-cold membrane buffer (10 mM Tris-HCl, pH 7.5 and 0.1 mM EDTA), homogenized, and centrifuged at 2,000 g for 3 min at 4 °C. Supernatants were further centrifuged at 45,000 rpm for 30 min at 4 °C. The membrane pellet was resuspended in ice-cold membrane buffer at a protein concentration of approximately 1 mg/mL and stored in aliquots at −70 °C. Protein concentration was determined according to Bradford assay.
(§7) In the experiments designed to define compound affinity and selectivity for MOR, DOR, and KOR, membranes expressing each of these opioid receptors ([…]) were incubated at 30 °C for 45 min in buffer containing 50 mM Tris-HCl, pH 7.5, 100 mM NaCl, and 10 mM MgCl2 as described by Georgoussi et al. […] The ability of compounds 10–16 to displace [^3H]-DPN (3.75 nM) binding to the opioid receptors was assessed as described by Morou And Georgoussi (2005). Non-specific binding was measured in the presence of […] Naloxone. The reaction was stopped by rapid filtration and three washes in ice-cold 50 mM Tris-HCl, pH 7.4, through GF/C filters (Whatman, Maidstone, UK) using an automated cell harvester (Brandel Inc., Gaithersburg, MD, USA). The radioactivity was measured by liquid scintillation counting (Liquid Scintillation Analyzer, Packard).
(§8) Analysis of the binding data was performed using the Origin 7.5 software (OriginLab Corporation, Northampton, MA, USA). In calcium mobilization experiments, data were analyzed by non-linear curve fitting equation, using GraphPad 5.0 software. […] Ligand efficacy was expressed as intrinsic activity (α), calculated as the ratio between the Emax of the ligand and that of the respective standards. Calcium mobilization data were expressed as FIU (fluorescence intensity units) in percent, over the baseline. Agonist potencies are given as pEC50 (the negative logarithm to base 10 of the molar concentration of an agonist that produces 50% of the maximal possible effect, Emax). Concentration response curves to agonists were fitted with the following equation: Effect = baseline + (Emax − baseline)/(1+10^(LogEC50 − X) ∗ HillSlope) where X is the agonist concentration.

rat-MOR = target: T3, rat-MOR (Rattus norvegicus, UniProt P33535); assay: Radioligand competition binding, [3H]-DPN, HEK293 membranes, MOR
T3 construct: expressed in transfected cells
Experimental: as §5, §6, §7, §8

rat-DOR = target: T4, rat-DOR (Rattus norvegicus, UniProt P33533); assay: Radioligand competition binding, [3H]-DPN, HEK293 membranes, DOR
T4 construct: expressed in transfected cells
Experimental: as §5, §6, §7, §8

recombinant human MOR = target: T5, recombinant human MOR (Homo sapiens, UniProt P35372); assay: Calcium mobilization assay, CHO-MOR cells expressing Gαqi5; assay type: cell-based; details: for functional profile at MOR: calcium mobilization; for intrinsic activity (α) at MOR: ratio of Emax of ligand to that of the standard; for MOR pEC50 (CL95%): agonist mode, Inactive = inactive at 10 μM, crc incomplete = incomplete concentration response curve at 10 μM
T5 construct: expressed in transfected cells; gift of Dr. Larry Toll (SRI International); infected with a retrovirus for Gαqi5

SMILES | KOR pEC50 (CL95%) (human-KOR [1]) | DOR pEC50 (CL95%) (recombinant human DOR) | DOR pKB (CL95%) (recombinant human DOR) | Ki (human-KOR [2]) [µM] | Ki (rat-MOR) [µM] | Ki (rat-DOR) [nM] | EC50 (recombinant human MOR) [nM] | functional profile at MOR (recombinant human MOR) | intrinsic activity (α) at MOR (recombinant human MOR) | Kb (human-KOR [1]) [nM] | KOR pKB (CL95%) (human-KOR [1]) | functional profile at KOR (human-KOR [1]) | Kb (recombinant human DOR) [nM] | functional profile at DOR (recombinant human DOR) | MOR pEC50 (CL95%) (recombinant human MOR) | melting point | other results
C[C@H]1[C@H]2Cc3ccc(O)cc3[C@]1(C)CCN2CCC(=O)Nc1ccc(F)cc1 [Compound 10, N-(4-Fluorophenyl)-3-[(2R,6R,11R)-8-hydroxy-6,11-dimethyl-1,4,5,6-tetrahydro-2,6-methano-3-benzazocin-3(2H)-yl]propanamide] | crc incomplete | able to stimulate calcium mobilization, but only at the higher concentration tested; also recorded: crc incomplete | Inactive | 4.8 ± 0.95 | 0.28 ± 0.013 | 920 ± 120 | 2140 | MOR partial agonists | 0.30 ± 0.015 | – | – | – | – | – | – | – | –
Cc1ccc(NC(=O)CCN2CC[C@@]3(C)c4cc(O)ccc4C[C@@H]2[C@@H]3C)cc1 [Compound 11, 3-[(2R,6R,11R)-8-Hydroxy-6,11-dimethyl-1,4,5,6-tetrahydro-2,6-methano-3-benzazocin-3(2H)-yl]-N-(4-methylphenyl)propanamide] | Inactive | Inactive | – | 1.01 ± 0.11 | 0.24 ± 0.015 | 410 ± 23 | 1410 | MOR partial agonists | 0.23 ± 0.011 | 1410 | able to inhibit the stimulatory effects induced by dynorphin A | DOR/KOR antagonists | 1480 | DOR/KOR antagonists | – | – | –
C[C@H]1[C@H]2Cc3ccc(O)cc3[C@]1(C)CCN2CCC(=O)Nc1ccc(C#N)cc1 [Compound 12, N-(4-Cyanophenyl)-3-[(2R,6R,11R)-8-hydroxy-6,11-dimethyl-1,4,5,6-tetrahydro-2,6-methano-3-benzazocin-3(2H)-yl]propanamide] | Inactive | Inactive | – | 0.85 ± 0.18 | 0.21 ± 0.024 | 380 ± 34 | 1020 | MOR partial agonists | 0.34 ± 0.017 | 1260 | able to inhibit the stimulatory effects induced by dynorphin A | DOR/KOR antagonists | 1510 | DOR/KOR antagonists | – | – | –
C[C@H]1[C@H]2Cc3ccc(O)cc3[C@]1(C)CCN2CCC(=O)N(c1ccccc1)c1ccccc1 [Compound 16, 3-[(2R,6R,11R)-8-Hydroxy-6,11-dimethyl-1,4,5,6-tetrahydro-2,6-methano-3-benzazocin-3(2H)-yl]-N,N-diphenylpropanamide] | Inactive | Inactive | Inactive | 0.2 ± 0.03 | 0.17 ± 0.013 | – | – | MOR/KOR antagonist | – | 776 | able to inhibit the stimulatory effects induced by dynorphin A | MOR/KOR antagonist | – | – | Inactive | 173.5 °C (dec.) | Kb (recombinant human MOR): 759 nM
C[C@H]1[C@H]2Cc3ccc(O)cc3[C@]1(C)CCN2CCC(=O)N1CCCc2ccccc21 [Compound 15, 1-(3,4-Dihydroquinolin-1(2H)-yl)-3-[(2R,6R,11R)-8-hydroxy-6,11-dimethyl-1,4,5,6-tetrahydro-2,6-methano-3-benzazocin-3(2H)-yl]-propan-1-one] | – | Inactive | Inactive | – | – | – | – | – | – | – | – | partial agonist of KOR | – | – | Inactive | 92.2 °C (dec.) | intrinsic activity (α) at KOR (human-KOR [1]; ratio of Emax of ligand to that of the standard): 0.32 ± 0.016; EC50 (human-KOR [1]; read-out: KOR pEC50 (CL95%) (converted)): 257 nM; Ki (human-KOR [2]; [3H]-DPN displacement, means ± SEM of three experiments in duplicate, read-out: Ki (μM) ± SEM KOR): 0.2 ± 0.02 µM; Ki (rat-MOR; [3H]-DPN displacement, means ± SEM of three experiments in duplicate, read-out: Ki (μM) ± SEM MOR): 0.36 ± 0.023 µM

— PMC6027146, “Synthesis and Structure-Activity Relationships of (−)-cis-N-Normetazocine-Based LP1 Derivatives” (Pharmaceuticals, 2018)
